Data published in US11046680B1, “Heteroaryl-substituted triazoles as APJ receptor agonists” (priority 2016, dated 2021).

Biological target: human APJ receptor (Homo sapiens (Human), UniProt P35414)
Test: biochemical
Type: biochemical
Settings: [35S]GTPγS binding, CHO membranes expressing human APJ receptor; read-out: Activity hAPJ SPA EC50 IP
Method in brief: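 Membranes of a stable CHO line carrying human APJ (pFLAG-CMV-3) were used in a GTPγS binding format; buffer GDP, MgCl2 and NaCl were optimized, and plates were read after 90 min at RT.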

human APJ receptor, sequence (P35414 whole entry): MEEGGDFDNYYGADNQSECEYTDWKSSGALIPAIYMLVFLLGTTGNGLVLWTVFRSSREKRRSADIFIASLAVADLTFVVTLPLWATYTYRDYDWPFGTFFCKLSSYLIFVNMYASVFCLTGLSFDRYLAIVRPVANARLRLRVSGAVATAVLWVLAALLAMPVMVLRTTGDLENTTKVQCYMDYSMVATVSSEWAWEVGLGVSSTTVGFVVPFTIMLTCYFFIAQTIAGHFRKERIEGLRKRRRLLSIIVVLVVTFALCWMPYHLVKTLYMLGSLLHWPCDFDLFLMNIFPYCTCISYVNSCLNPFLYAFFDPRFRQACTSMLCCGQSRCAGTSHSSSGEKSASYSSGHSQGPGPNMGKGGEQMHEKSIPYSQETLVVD

Row | Molecule | EC50 [nM]
1 | COc1cccc(OC)c1-n1c(NS(=O)(=O)[C@@H]2C[C@H](O)CN(c3ncc(F)cn3)C2)nnc1-c1nc(C)cs1 (single isomer, unassigned) [Example 254.0, (3R,5S)-N-(4-(2,6-dimethoxyphenyl)-5-(4-methyl-1,3-thiazol-2-yl)-4H-1,2,4-triazol-3-yl)-1-(5-fluoro-2-pyrimidinyl)-5-hydroxy-3-piperidinesulfonamide or (3S,5R)-N-(4-(2,6-dimethoxyphenyl)-5-(4-methyl-1,3-thiazol-2-yl)-4H-1,2,4-triazol-3-yl)-1-(5-fluoro-2-pyrimidinyl)-5-hydroxy-3-piperidinesulfonamide] | 1.2
2 | CCO[C@H](c1ncc(C)cn1)[C@H](C)S(=O)(=O)Nc1nnc(-c2ccn(C(F)F)n2)n1-c1c(OC)cccc1OC [Example 199.0, (1R,2S)-N-(5-(1-(difluoromethyl)-1H-pyrazol-3-yl)-4-(2,6-dimethoxyphenyl)-4H-1,2,4-triazol-3-yl)-1-ethoxy-1-(5-methyl-2-pyrimidinyl)-2-propanesulfonamide] | 0.26
3 | COc1cccc(OC)c1-n1c(NS(=O)(=O)[C@H](C)Cc2ncc(F)cn2)nnc1-c1cnccn1 (single isomer, unassigned) [Example 30.0, (R)-N-(4-(2,6-dimethoxyphenyl)-5-(pyrazin-2-yl)-4H-1,2,4-triazol-3-yl)-1-(5-fluoropyrimidin-2-yl)propane-2-sulfonamide or (S)-N-(4-(2,6-dimethoxyphenyl)-5-(pyrazin-2-yl)-4H-1,2,4-triazol-3-yl)-1-(5-fluoropyrimidin-2-yl)propane-2-sulfonamide] | 350
4 | COc1cccc(OC)c1-n1c(NS(=O)(=O)CCc2ccc(Cl)cc2)nnc1-c1cnco1 [Example 138.0, 2-(4-chlorophenyl)-N-(4-(2,6-dimethoxyphenyl)-5-(oxazol-5-yl)-4H-1,2,4-triazol-3-yl)ethanesulfonamide] | 586
5 | COc1cccc(OC)c1-n1c(NS(=O)(=O)CC[C@@H](O)C2CCCC2)nnc1-c1nc(C)cs1 (mixture of isomers) [Example 98.0, (R)-3-Cyclopentyl-N-(4-(2,6-dimethoxyphenyl)-5-(4-methylthiazol-2-yl)-4H-1,2,4-triazol-3-yl)-3-hydroxypropane-1-sulfonamide and (S)-3-cyclopentyl-N-(4-(2,6-dimethoxyphenyl)-5-(4-methylthiazol-2-yl)-4H-1,2,4-triazol-3-yl)-3-hydroxypropane-1-sulfonamide] | 5.3
6 | CCO[C@H](c1ncc(Cl)cn1)[C@H](C)S(=O)(=O)Nc1nnc(-c2cc(C)n[nH]2)n1-c1c(OC)cccc1OC [Example 392.0, (1R,2S)-1-(5-Chloropyrimidin-2-yl)-N-(4-(2,6-dimethoxyphenyl)-5-(3-methyl-1H-pyrazol-5-yl)-4H-1,2,4-triazol-3-yl)-1-ethoxypropane-2-sulfonamide] | 1
7 | COc1ccccc1-n1c(NS(=O)(=O)Cc2ccc(Cl)cc2)nnc1-c1cccs1 [Example 234.0, 1-(4-chlorophenyl)-N-(4-(2-methoxyphenyl)-5-(2-thiophenyl)-4H-1,2,4-triazol-3-yl)methanesulfonamide] | 340
8 | COc1cccc(OC)c1-n1c(NS(=O)(=O)[C@@H](C)[C@H](OC)c2ncc(Cl)cn2)nnc1-c1n[nH]c2ccccc12 [Example 421.0, (1R,2S)-1-(5-chloropyrimidin-2-yl)-N-(4-(2,6-dimethoxyphenyl)-5-(1H-indazol-3-yl)-4H-1,2,4-triazol-3-yl)-1-methoxypropane-2-sulfonamide] | 4.5
9 | COc1cccc(OC)c1-n1c(NS(=O)(=O)[C@@H](C)[C@H](OC)c2ncc(C)cn2)nnc1-c1csc(C)n1 [Example 338.0, (1R,2S)-N-(4-(2,6-dimethoxyphenyl)-5-(2-methyl-1,3-thiazol-4-yl)-4H-1,2,4-triazol-3-yl)-1-methoxy-1-(5-methyl-2-pyrimidinyl)-2-propanesulfonamide] | 0.34
10 | COc1cccc(OC)c1-n1c(NS(=O)(=O)[C@H](C)[C@@H](C)c2ncc(F)cn2)nnc1-c1nc(C)cs1 (single isomer, unassigned) [Example 121.0] | 12
11 | CCn1ccc(-c2nnc(NS(=O)(=O)[C@@H](C)[C@H](OC)c3ncc(F)cn3)n2-c2c(OC)cccc2OC)n1 [Example 134.0, (1R,2S)-N-(4-(2,6-Dimethoxyphenyl)-5-(1-ethyl-1H-pyrazol-3-yl)-4H-1,2,4-triazol-3-yl)-1-(5-fluoro-2-pyrimidinyl)-1-methoxy-2-propanesulfonamide] | 1.2
12 | COc1cccc(OC)c1-n1c(NS(=O)(=O)[C@@H](C)[C@H](C)c2ncc(C)cn2)nnc1-c1cnn(C)c1 [Example 215.0, (2S,3R)-N-(4-(2,6-dimethoxyphenyl)-5-(1-methyl-1H-pyrazol-4-yl)-4H-1,2,4-triazol-3-yl)-3-(5-methyl-2-pyrimidinyl)-2-butanesulfonamide] | 0.42
13 | COc1cccc(OC)c1-n1c(NS(=O)(=O)[C@@H](C)[C@H](C)c2ncc(C)cn2)nnc1-c1noc2ccccc12 [Example 77.0, (2S,3R)-N-(5-(benzo[d]isoxazol-3-yl)-4-(2,6-dimethoxyphenyl)-4H-1,2,4-triazol-3-yl)-3-(5-methylpyrimidin-2-yl)butane-2-sulfonamide] | 4.1
14 | CCn1ccc(-c2nnc(NS(=O)(=O)[C@@H](C)[C@H](C)c3ncc(F)cn3)n2-c2c(OC)cccc2OC)n1 [Example 191.0, (2S,3R)-N-(4-(2,6-dimethoxyphenyl)-5-(1-ethyl-1H-pyrazol-3-yl)-4H-1,2,4-triazol-3-yl)-3-(5-fluoro-2-pyrimidinyl)-2-butanesulfonamide] | 0.63
15 | CO[C@H](c1ncc(Cl)cn1)[C@H](C)S(=O)(=O)Nc1nnc(-c2noc3ccccc23)n1C(C)C [Example 511.0, (1R,2S)-N-(5-(benzo[d]isoxazol-3-yl)-4-isopropyl-4H-1,2,4-triazol-3-yl)-1-(5-chloropyrimidin-2-yl)-1-methoxypropane-2-sulfonamide] | 200
16 | COc1ccc(N2CCOCC2=O)cc1-n1c(NS(=O)(=O)CCc2ccc(Cl)cc2)nnc1-c1cccs1 [Example 127.0, 2-(4-Chlorophenyl)-N-(4-(2-methoxy-5-(3-oxo-4-morpholinyl)phenyl)-5-(2-thiophenyl)-4H-1,2,4-triazol-3-yl)ethanesulfonamide] | 300
17 | COc1cccc(OC)c1-n1c(NS(=O)(=O)C[C@H](O)c2ccc(F)cc2S(C)(=O)=O)nnc1-c1ccn(C)n1 (single isomer, unassigned) [Example 370.0, (R)-N-(4-(2,6-Dimethoxyphenyl)-5-(1-methyl-1H-pyrazol-3-yl)-4H-1,2,4-triazol-3-yl)-2-(4-fluoro-2-(methylsulfonyl)phenyl)-2-hydroxyethanesulfonamide or (S)-N-(4-(2,6-dimethoxyphenyl)-5-(1-methyl-1H-pyrazol-3-yl)-4H-1,2,4-triazol-3-yl)-2-(4-fluoro-2-(methylsulfonyl)phenyl)-2-hydroxyethanesulfonamide] | 3.1
18 | COc1cccc(OC)c1-n1c(NS(=O)(=O)[C@@H](C)[C@H](OC)c2ncc(C)cn2)nnc1-c1ncn(C)n1 [Example 204.0, (1R,2S)-N-(4′-(2,6-dimethoxyphenyl)-1-methyl-1H,4′H-3,3′-bi-1,2,4-triazol-5′-yl)-1-methoxy-1-(5-methyl-2-pyrimidinyl)-2-propanesulfonamide] | 52
19 | COc1cccc(OC)c1-n1c(NS(=O)(=O)[C@@H](C)[C@H](OC)c2ncc(C)cn2)nnc1-c1nc(C2CC2)cs1 [Example 340.0, (1R,2S)-N-(5-(4-cyclopropyl-1,3-thiazol-2-yl)-4-(2,6-dimethoxyphenyl)-4H-1,2,4-triazol-3-yl)-1-methoxy-1-(5-methyl-2-pyrimidinyl)-2-propanesulfonamide] | 0.26
20 | COc1cccc(OC)c1-n1c(NS(=O)(=O)[C@@H](C)[C@H](O)c2cn3ccccc3n2)nnc1-c1ccn(C)n1 (single isomer, unassigned) [Example 350.0, (1R,2S)-N-(4-(2,6-Dimethoxyphenyl)-5-(1-methyl-1H-pyrazol-3-yl)-4H-1,2,4-triazol-3-yl)-1-hydroxy-1-imidazo[1,2-a]pyridin-2-yl-2-propanesulfonamide or (1S,2R)-N-(4-(2,6-dimethoxyphenyl)-5-(1-methyl-1H-pyrazol-3-yl)-4H-1,2,4-triazol-3-yl)-1-hydroxy-1-imidazo[1,2-a]pyridin-2-yl-2-propanesulfonamide] | 6.1
21 | COc1cccc(OC)c1-n1c(NS(=O)(=O)[C@@H](C)[C@H](OC)c2ncc(C)cn2)nnc1-c1cnc2[nH]ccc2n1 [Example 206.0] | 96
22 | (R)-N-(4-(2,6-dimethoxyphenyl)-5-(1,5-dimethyl-1H-pyrazol-3-yl)-4H-1,2,4-triazol-3-yl)-1-(5-fluoropyrimidin-2-yl)propane-2-sulfonamide and (S)-N-(4-(2,6-dimethoxyphenyl)-5-(1,5-dimethyl-1H-pyrazol-3-yl)-4H-1,2,4-triazol-3-yl)-1-(5-fluoropyrimidin-2-yl)propane-2-sulfonamide [Example 54.0] | 33
23 | COc1cccc(OC)c1-n1c(NS(=O)(=O)CCc2ccc(F)cc2C#N)nnc1-c1nc(C(C)C)cs1 [Example 151.0, 2-(2-cyano-4-fluorophenyl)-N-(4-(2,6-dimethoxyphenyl)-5-(4-isopropylthiazol-2-yl)-4H-1,2,4-triazol-3-yl)ethanesulfonamide] | 31
24 | COc1cccc(OC)c1-n1c(NS(=O)(=O)[C@@H](C)[C@@H](C)c2ncc(F)cn2)nnc1-c1nc(C)cs1 (single isomer, unassigned) [Example 119.0] | 4.6
25 | COc1cccc(OC)c1-n1c(NS(=O)(=O)[C@@H](C)[C@H](C)c2ncc(F)cn2)nnc1-c1cc2n(n1)CCC2 [Example 208.0, (2S,3R)-N-(5-(5,6-dihydro-4H-pyrrolo[1,2-b]pyrazol-2-yl)-4-(2,6-dimethoxyphenyl)-4H-1,2,4-triazol-3-yl)-3-(5-fluoro-2-pyrimidinyl)-2-butanesulfonamide] | 2.5
